{"source": "PubChem BioAssay AID1845213", "about": "(Molecular Pharmacology Branch, DTP, NCI, 2023)", "system": "NCI-H841 complex tumor spheroid viability", "assay": "Anticancer human tumor NCI-H841 cell line growth inhibition;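 as to all read-outs here: spheroids exposed to compounds for 7 days before readout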;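 as to viability, T/C: 100% = DMSO vehicle control wells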", "settings": "for IC50: curve of first compound; for viability, T/C: stronger effect = lower value", "method_in_brief": "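Complex tumor spheroids combined malignant cells with endothelial cells and mesenchymal stem cells. DNA-damaging drugs and DNA repair inhibitors were tested alone and in combination, at half-log dilutions down from clinical Cmax (top 10 microM if Cmax unknown), 0.25% DMSO final.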"}
{"smiles": "O=C(c1cc(Cc2n[nH]c(=O)c3ccccc23)ccc1F)N1CCN(C(=O)C2CC2)CC1", "note": "+ COc1cc2c(cc1O)CCNC21CSC2c3c(OC(C)=O)c(C)c4c(c3C(COC1=O)N1C(O)C3Cc5cc(C)c(OC)c(O)c5C(C21)N3C)OCO4", "values": [{"measurement": "IC50", "setting": "second compound 30 pM", "result": 4580, "unit": "nM"}, {"measurement": "IC50", "setting": "second compound 94.9 pM", "result": 3050, "unit": "nM"}, {"measurement": "IC50", "setting": "second compound 0.0003 µM", "result": "< 94.9", "unit": "nM"}, {"measurement": "IC50", "setting": "second compound 0.000949 µM", "result": "< 94.9", "unit": "nM"}, {"measurement": "IC50", "setting": "second compound 0.003 µM", "result": "< 94.9", "unit": "nM"}, {"measurement": "viability, T/C", "setting": "second compound 30 pM, first compound 0.0949 µM", "result": 107, "unit": "%"}, {"measurement": "viability, T/C", "setting": "second compound 30 pM, first compound 0.3 µM", "result": 105, "unit": "%"}, {"measurement": "viability, T/C", "setting": "second compound 30 pM, first compound 0.949 µM", "result": 101, "unit": "%"}, {"measurement": "viability, T/C", "setting": "second compound 30 pM, first compound 3 µM", "result": 77, "unit": "%"}, {"measurement": "viability, T/C", "setting": "second compound 30 pM, first compound 9.49 µM", "result": 3.12, "unit": "%"}, {"measurement": "viability, T/C", "setting": "second compound 30 pM, first compound 30 µM", "result": 1.74, "unit": "%"}, {"measurement": "viability, T/C", "setting": "second compound 94.9 pM, first compound 0.0949 µM", "result": 97.5, "unit": "%"}, {"measurement": "viability, T/C", "setting": "second compound 94.9 pM, first compound 0.3 µM", "result": 97.8, "unit": "%"}, {"measurement": "viability, T/C", "setting": "second compound 94.9 pM, first compound 0.949 µM", "result": 87.4, "unit": "%"}, {"measurement": "viability, T/C", "setting": "second compound 94.9 pM, first compound 3 µM", "result": 52.1, "unit": "%"}, {"measurement": "viability, T/C", "setting": "second compound 94.9 pM, first compound 9.49 µM", "result": 1.93, "unit": "%"}, {"measurement": "viability, T/C", "setting": "second compound 94.9 pM, first compound 30 µM", "result": 1.27, "unit": "%"}, {"measurement": "viability, T/C", "setting": "second compound 0.0003 µM, first compound 0.0949 µM", "result": 27.4, "unit": "%"}, {"measurement": "viability, T/C", "setting": "second compound 0.0003 µM, first compound 0.3 µM", "result": 22.1, "unit": "%"}, {"measurement": "viability, T/C", "setting": "second compound 0.0003 µM, first compound 0.949 µM", "result": 18.2, "unit": "%"}, {"measurement": "viability, T/C", "setting": "second compound 0.0003 µM, first compound 3 µM", "result": 2.51, "unit": "%"}, {"measurement": "viability, T/C", "setting": "second compound 0.0003 µM, first compound 9.49 µM", "result": 1.17, "unit": "%"}, {"measurement": "viability, T/C", "setting": "second compound 0.0003 µM, first compound 30 µM", "result": 0.76, "unit": "%"}, {"measurement": "viability, T/C", "setting": "second compound 0.000949 µM, first compound 0.0949 µM", "result": 3.77, "unit": "%"}, {"measurement": "viability, T/C", "setting": "second compound 0.000949 µM, first compound 0.3 µM", "result": 4.04, "unit": "%"}, {"measurement": "viability, T/C", "setting": "second compound 0.000949 µM, first compound 0.949 µM", "result": 2.93, "unit": "%"}, {"measurement": "viability, T/C", "setting": "second compound 0.000949 µM, first compound 3 µM", "result": 0.82, "unit": "%"}, {"measurement": "viability, T/C", "setting": "second compound 0.000949 µM, first compound 9.49 µM", "result": 0.32, "unit": "%"}, {"measurement": "viability, T/C", "setting": "second compound 0.000949 µM, first compound 30 µM", "result": 0.11, "unit": "%"}, {"measurement": "viability, T/C", "setting": "second compound 0.003 µM, first compound 0.0949 µM", "result": 7.31, "unit": "%"}, {"measurement": "viability, T/C", "setting": "second compound 0.003 µM, first compound 0.3 µM", "result": 0.2, "unit": "%"}, {"measurement": "viability, T/C", "setting": "second compound 0.003 µM, first compound 0.949 µM", "result": 0.13, "unit": "%"}, {"measurement": "viability, T/C", "setting": "second compound 0.003 µM, first compound 3 µM", "result": 0.12, "unit": "%"}, {"measurement": "viability, T/C", "setting": "second compound 0.003 µM, first compound 9.49 µM", "result": 0.14, "unit": "%"}, {"measurement": "viability, T/C", "setting": "second compound 0.003 µM, first compound 30 µM", "result": 0.29, "unit": "%"}]}
{"smiles": "[2H]c1nc(C)nc([2H])c1-c1cc(NC[C@@H](C)c2cccc3c(C(=O)NC)ccnc23)ncn1", "note": "+ CC[C@@]1(O)C(=O)OCc2c1cc1n(c2=O)Cc2cc3c(CN(C)C)c(O)ccc3nc2-1", "values": [{"measurement": "IC50", "setting": "second compound 0.003 µM", "result": "> 10000", "unit": "nM"}, {"measurement": "IC50", "setting": "second compound 0.00949 µM", "result": "> 10000", "unit": "nM"}, {"measurement": "IC50", "setting": "second compound 0.03 µM", "result": "< 31.6", "unit": "nM"}, {"measurement": "IC50", "setting": "second compound 0.0949 µM", "result": "< 31.6", "unit": "nM"}, {"measurement": "IC50", "setting": "second compound 0.3 µM", "result": "< 31.6", "unit": "nM"}, {"measurement": "viability, T/C", "setting": "second compound 0.003 µM, first compound 0.0316 µM", "result": 97.6, "unit": "%"}, {"measurement": "viability, T/C", "setting": "second compound 0.003 µM, first compound 0.1 µM", "result": 95.8, "unit": "%"}, {"measurement": "viability, T/C", "setting": "second compound 0.003 µM, first compound 0.316 µM", "result": 96.1, "unit": "%"}, {"measurement": "viability, T/C", "setting": "second compound 0.003 µM, first compound 1 µM", "result": 96.4, "unit": "%"}, {"measurement": "viability, T/C", "setting": "second compound 0.003 µM, first compound 3.16 µM", "result": 93.4, "unit": "%"}, {"measurement": "viability, T/C", "setting": "second compound 0.003 µM, first compound 10 µM", "result": 93, "unit": "%"}, {"measurement": "viability, T/C", "setting": "second compound 0.00949 µM, first compound 0.0316 µM", "result": 83.9, "unit": "%"}, {"measurement": "viability, T/C", "setting": "second compound 0.00949 µM, first compound 0.1 µM", "result": 76.5, "unit": "%"}, {"measurement": "viability, T/C", "setting": "second compound 0.00949 µM, first compound 0.316 µM", "result": 74.4, "unit": "%"}, {"measurement": "viability, T/C", "setting": "second compound 0.00949 µM, first compound 1 µM", "result": 75.2, "unit": "%"}, {"measurement": "viability, T/C", "setting": "second compound 0.00949 µM, first compound 3.16 µM", "result": 68.7, "unit": "%"}, {"measurement": "viability, T/C", "setting": "second compound 0.00949 µM, first compound 10 µM", "result": 62.6, "unit": "%"}, {"measurement": "viability, T/C", "setting": "second compound 0.03 µM, first compound 0.0316 µM", "result": 2.66, "unit": "%"}, {"measurement": "viability, T/C", "setting": "second compound 0.03 µM, first compound 0.1 µM", "result": 2.14, "unit": "%"}, {"measurement": "viability, T/C", "setting": "second compound 0.03 µM, first compound 0.316 µM", "result": 2.36, "unit": "%"}, {"measurement": "viability, T/C", "setting": "second compound 0.03 µM, first compound 1 µM", "result": 1.49, "unit": "%"}, {"measurement": "viability, T/C", "setting": "second compound 0.03 µM, first compound 3.16 µM", "result": 1.43, "unit": "%"}, {"measurement": "viability, T/C", "setting": "second compound 0.03 µM, first compound 10 µM", "result": 1.47, "unit": "%"}, {"measurement": "viability, T/C", "setting": "second compound 0.0949 µM, first compound 0.0316 µM", "result": 1.75, "unit": "%"}, {"measurement": "viability, T/C", "setting": "second compound 0.0949 µM, first compound 0.1 µM", "result": 1.82, "unit": "%"}, {"measurement": "viability, T/C", "setting": "second compound 0.0949 µM, first compound 0.316 µM", "result": 1.89, "unit": "%"}, {"measurement": "viability, T/C", "setting": "second compound 0.0949 µM, first compound 1 µM", "result": 1.74, "unit": "%"}, {"measurement": "viability, T/C", "setting": "second compound 0.0949 µM, first compound 3.16 µM", "result": 1.58, "unit": "%"}, {"measurement": "viability, T/C", "setting": "second compound 0.0949 µM, first compound 10 µM", "result": 1.67, "unit": "%"}, {"measurement": "viability, T/C", "setting": "second compound 0.3 µM, first compound 0.0316 µM", "result": 1.97, "unit": "%"}, {"measurement": "viability, T/C", "setting": "second compound 0.3 µM, first compound 0.1 µM", "result": 1.94, "unit": "%"}, {"measurement": "viability, T/C", "setting": "second compound 0.3 µM, first compound 0.316 µM", "result": 1.59, "unit": "%"}, {"measurement": "viability, T/C", "setting": "second compound 0.3 µM, first compound 1 µM", "result": 1.73, "unit": "%"}, {"measurement": "viability, T/C", "setting": "second compound 0.3 µM, first compound 3.16 µM", "result": 1.5, "unit": "%"}, {"measurement": "viability, T/C", "setting": "second compound 0.3 µM, first compound 10 µM", "result": 1.17, "unit": "%"}]}
